The structures appear in SMILES notation. ≈ marks a conversion by molar mass, not a printed value.

Here are results for three compounds from patent publication US20240270762A1, “PENICILLIN-BINDING PROTEIN INHIBITORS” (priority 2021, published 2024).

Assay [1] deals with P. aeruginosa ATCC 35151. Kind of assay: microbe, parasite or virus in culture. The following applies: Pseudomonas aeruginosa, ATCC35151, read-out: Minimum inhibitory concentration, P. aeruginosa ATCC 35151. It counts as cell-based.
The test system of assay [2] is A. baumannii CDC-0036. The assay can be described thus: microbe, parasite or virus in culture. It counts as cell-based. Conditions: Acinetobacter baumannii, CDC0036, read-out: MIC, A. baumannii CDC-0036.
Assay [3] relates to B. pseudomallei Bp82. The assay can be described thus: microbe, parasite or virus in culture. The class given is cell-based. Conditions: Burkholderia pseudomallei, BP82, read-out: Minimum inhibitory concentration, B. pseudomallei Bp82.
Assay [4] concerns N. gonorrhoeae WHO Q. Kind of assay: Liquid broth MIC in Fastidious broth. Conditions: Neisseria gonorrhoeae, read-out: Minimum Inhibitory Concentration, WHO Q.
For assay [5], the target named is T1, PBP1a from Acinetobacter baumannii (ATCC 19606) (Acinetobacter baumannii, UniProt A0ABX6CK30).
T1 sequence (A0ABX6CK30 1-851): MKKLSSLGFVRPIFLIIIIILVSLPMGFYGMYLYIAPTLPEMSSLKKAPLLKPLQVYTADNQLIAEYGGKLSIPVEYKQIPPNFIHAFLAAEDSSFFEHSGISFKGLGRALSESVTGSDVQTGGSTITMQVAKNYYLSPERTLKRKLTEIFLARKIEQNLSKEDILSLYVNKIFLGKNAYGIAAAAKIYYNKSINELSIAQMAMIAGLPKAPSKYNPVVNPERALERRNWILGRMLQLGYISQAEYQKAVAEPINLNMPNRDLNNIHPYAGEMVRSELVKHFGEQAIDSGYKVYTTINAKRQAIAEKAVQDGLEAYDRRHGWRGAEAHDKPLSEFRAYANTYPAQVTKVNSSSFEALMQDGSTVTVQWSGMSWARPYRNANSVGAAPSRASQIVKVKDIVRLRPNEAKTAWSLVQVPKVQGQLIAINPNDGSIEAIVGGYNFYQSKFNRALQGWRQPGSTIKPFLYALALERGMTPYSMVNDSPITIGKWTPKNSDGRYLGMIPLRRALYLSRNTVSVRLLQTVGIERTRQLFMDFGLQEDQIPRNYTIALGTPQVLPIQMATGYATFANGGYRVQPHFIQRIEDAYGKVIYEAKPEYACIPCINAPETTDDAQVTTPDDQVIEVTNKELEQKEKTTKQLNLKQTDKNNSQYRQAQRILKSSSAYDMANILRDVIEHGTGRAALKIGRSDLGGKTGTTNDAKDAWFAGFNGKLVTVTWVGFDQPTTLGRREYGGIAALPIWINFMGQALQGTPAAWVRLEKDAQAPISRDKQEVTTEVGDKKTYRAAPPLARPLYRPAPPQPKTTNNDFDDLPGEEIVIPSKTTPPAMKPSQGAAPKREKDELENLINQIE
Kind of assay: Bocillin-FL fluorescence polarization competition binding, A. baumannii PBP1a. The following applies: fluorescence polarization competition binding assay using Bocillin-FL; read-out: A. baumannii PBP1a Potency. The method, boiled down:
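Purified PBPs pre-incubated with inhibitor (E. coli PBP3 1.5 μM, 30 min; P. aeruginosa PBP3 0.75 μM, A. baumannii PBP1a 1 μM and PBP3 0.2 μM, 15 min), then Bocillin-FL 0.1 μM (0.05 μM for PBP1a) added; FP read up to 60 min. EC50 = concentration halving bound Bocillin-FL.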

The test system of assay [6] is P. aeruginosa CDC-0054. The assay can be described thus: microbe, parasite or virus in culture. The class given is cell-based. The following applies: Pseudomonas aeruginosa, CDC0054, read-out: Minimum inhibitory concentration, P. aeruginosa CDC-0054.

Turning to `O=C(NCCS(=O)(=O)N1CCN(C(=O)N[C@@H](C(=O)N[C@H]2Cc3ccc(F)c(C(=O)O)c3OB2O)c2cc(F)c(O)c(O)c2Cl)C1=O)c1nccs1` [Example 264, (R)-3-((R)-2-(2-chloro-5-fluoro-3,4-dihydroxyphenyl)-2-(2-oxo-3-((2-(thiazole-2-carboxamido)ethyl)sulfonyl)imidazolidine-1-carboxamido)acetamido)-7-fluoro-2-hydroxy-3,4-dihydro-2H-benzo[e][1,2]oxaborinine-8-carboxylic acid], the MIC in assay [1] was less than 1 µg/mL; in assay [2], less than 1 µg/mL; in assay [3], less than 1 µg/mL; in assay [4], 16 to 32 µg/mL (≈ 20.7 to 41.4 µM); in assay [6], less than 1 µg/mL. Moreover, in assay [5], the IC50 is greater than 250 µM.
For the compound `O=C(O)c1c(F)ccc2c1OB(O)[C@@H](NC(=O)C(NC(=O)N1CCN(S(=O)(=O)CCNC(=O)[C@@H]3CCCN3)C1=O)c1cc(F)c(O)c(O)c1Cl)C2` (stereo partly drawn) [Example 265, (3R)-3-(2-(2-chloro-5-fluoro-3,4-dihydroxyphenyl)-2-(2-oxo-3-((2-((S)-pyrrolidine-2-carboxamido)ethyl)sulfonyl)imidazolidine-1-carboxamido)acetamido)-7-fluoro-2-hydroxy-3,4-dihydro-2H-benzo[e][1,2]oxaborinine-8-carboxylic acid], the MIC in assay [1] is less than 1 µg/mL; in assay [2], 2 to 4 µg/mL (≈ 2.64 to 5.27 µM); in assay [3] it was less than 1 µg/mL; in assay [4], 16 to 32 µg/mL (≈ 21.1 to 42.2 µM); in assay [6] it was 2 to 4 µg/mL (≈ 2.64 to 5.27 µM). In addition, the IC50 in assay [5] is greater than 250 µM.
Consider `O=C(O)c1c(F)ccc2c1OB(O)[C@@H](NC(=O)C(NC(=O)N1CCN(S(=O)(=O)CCCNC(=O)[C@@H]3CCCN3)C1=O)c1cc(F)c(O)c(O)c1Cl)C2` (stereo partly drawn) [Example 275, (3R)-3-(2-(2-chloro-5-fluoro-3,4-dihydroxyphenyl)-2-(2-oxo-3-((3-((S)-pyrrolidine-2-carboxamido)propyl)sulfonyl)imidazolidine-1-carboxamido)acetamido)-7-fluoro-2-hydroxy-3,4-dihydro-2H-benzo[e][1,2]oxaborinine-8-carboxylic acid], for which the MIC in assay [1] was less than 1 µg/mL; in assay [2] it was 2 to 4 µg/mL (≈ 2.59 to 5.18 µM); in assay [3] it was less than 1 µg/mL; in assay [4], 16 to 32 µg/mL (≈ 20.7 to 41.4 µM); in assay [6], 8 to 16 µg/mL (≈ 10.4 to 20.7 µM). For the same compound, the IC50 in assay [5] is greater than 250 µM.
